Results as given in ChEMBL document CHEMBL1141126, “Improving the antiviral efficacy and selectivity of HIV-1 reverse transcriptase inhibitor TSAO-T by the introduction of functional groups at the N-3 position” (J Med Chem, 2005).

Experiments:
[1] = tested on: Human immunodeficiency virus 1; assay: Effective concentration required to inhibit HIV-1 induced cytopathicity in human CEM cell line; type: functional, organism-based; conditions: Human immunodeficiency virus 1, CCRF-CEM
[2] = tested on: CCRF-CEM; assay: Ratio of cytostatic concentration to effective concentration in human CEM cell line; Range 1000-5000; type: functional
[3] = tested on: Human immunodeficiency virus 2; assay: Effective concentration required to inhibit HIV-2 induced cytopathicity in human MT-4 cell line; type: functional, organism-based; conditions: Human immunodeficiency virus 2, MT4
[4] = tested on: Human immunodeficiency virus 1; assay: Effective concentration required to inhibit HIV-1/138K induced cytopathicity in human CEM cell line; type: functional, organism-based; conditions: Human immunodeficiency virus 1, CCRF-CEM
[5] = tested on: CCRF-CEM; assay: Cytostatic concentration required to inhibit cell proliferation in human CEM cell line; Range 10-50; type: functional
[6] = target: Human immunodeficiency virus type 1 reverse transcriptase (Human immunodeficiency virus 1, UniProt Q72547); assay: Inhibitory concentration required to inhibit recombinant HIV-1 reverse transcriptase
[7] = tested on: Human immunodeficiency virus 2; assay: Effective concentration required to inhibit HIV-2 induced cytopathicity in human CEM cell line; type: functional, organism-based; conditions: Human immunodeficiency virus 2, CCRF-CEM
[8] = tested on: Human immunodeficiency virus 1; assay: Effective concentration required to inhibit HIV-1 induced cytopathicity in human MT-4 cell line; type: functional, organism-based; conditions: Human immunodeficiency virus 1, MT4
[9] = tested on: CCRF-CEM; assay: Cytostatic concentration required to inhibit cell proliferation in human CEM cell line; type: functional
[10] = tested on: CCRF-CEM; assay: Ratio of cytostatic concentration to effective concentration in human CEM cell line; type: functional

CNC(=O)CCCCn1c(=O)c(C)cn([C@@H]2O[C@H](CO[Si](C)(C)C(C)(C)C)[C@@]3(OS(=O)(=O)C=C3N)[C@H]2O[Si](C)(C)C(C)(C)C)c1=O was tested, and the EC50 [1] was 0.01 µM, the SI [2] was 5000 and the EC50 [3] was > 10 µM. The EC50 [4] was ≥ 2 µM, the CC50 [5] was 50 µM and the IC50 [6] was 0.56 µM. The EC50 [7] was > 10 µM.
With CCCCOC(=O)CN(CCCn1c(=O)c(C)cn([C@@H]2O[C@H](CO[Si](C)(C)C(C)(C)C)[C@@]3(OS(=O)(=O)C=C3N)[C@H]2O[Si](C)(C)C(C)(C)C)c1=O)CC(=O)OCCCC the EC50 [8] was 12.8 µM, the EC50 [1] was 3.5 µM and the EC50 [3] was > 250 µM. The EC50 [4] was > 250 µM, the CC50 [9] was > 250 µM and the IC50 [6] was > 500 µM. For the same molecule, the SI [10] was 71 and the EC50 [7] was > 250 µM.
